Test results from patent US7388096B2, “Crystalline forms of a factor Xa inhibitor” (Bristol-Myers Squibb Company, priority 2004, dated 2008).
“Also recorded” adds a separate entry of the source.

Legend:
Format in all cases: physicochemical
[1] = accelerated stability studies (physical stability, XRPD of stressed samples); details: for physical stability in accelerated stability studies: 40° C./75% RH/Open/4 Weeks and 50° C./Closed/4 Weeks
Protocol: (§1) SSNMR and XRPD indexing studies have proven that Form N-3 is a single phase. No significant weight loss was observed up to about 250° C. in TGA analysis. […] Form N-3 has the tendency to form small primary particles (<10 μm) of the shape of needles or rods.
Form N-1 undergoes a solid-state transition at about 90° C. as evidenced by hot-stage microscopy studies and converts to Form N-2 at about 90° C. which is confirmed by […] studies. Thermal analysis by DSC (FIG. 8) and TGA show a small exotherm at about 113° C., which is attributed to the solid-state transition to Form N-2, followed by a melting endotherm at about 255 to about 259° C. similar to the melting range for Form N-2.
(§2) P-1 is a desolvated phase obtained by drying the initial material (potential solvates) crystallized from the reaction mixture. P-1 has never been observed in slurry, and therefore there is no evidence to support assignment of P-1 as a single and neat phase that is crystallized directly from the reaction mixture. […] P-1 can also convert to Form N-2 upon heating at 230° C. in solid state.

[2] = form conversion in slurry / relative thermodynamic stability of polymorphs
Protocol: as §1, §2
A Good Laboratory Practice batch (˜550 g) of Form N-3 has been manufactured successfully by converting P-1 material using a slurry method in acetone at about 50° C. Acetone slurries of Form P-1 spiked at about 50° C. with 1% water still yield Form N-3, but the slurries spiked with 5% and 10% water result in P-3 (solvated) material. […] The hemi sec BuOH solvate, form 0.5SBU-4, converts to form N-2 upon heating. […] Form N-1 also undergoes a solid state transition to Form N-2 upon heating at about 90 to 130° C. In addition, P-1 converts to potential solvate/hydrate forms by slurrying in different solvent systems, e.g., MeOH/EtOAc, DMF/H2O, DMSO/H2O, NMP/H2O at room temperature or at about 50° C.

[3] = moisture sorption and desorption study; details: for hygroscopicity (in words): moisture sorption and desorption study
Protocol: as §1, §2

Which “physical stability in accelerated stability studies” value [1] does the source give for `NC(=O)c1nn(-c2cccc(Cl)c2)c2c1CCN(c1ccc(-n3ccccc3=O)cc1)C2=O` [Form N-1, 1-(3-chlorophenyl)-7-oxo-6-[4-(2-oxo-1(2H)pyridinyl)phenyl]-4,5,6,7-tetrahydro-1H-pyrazolo[3,4-c]pyridine-3-carboxamide] here?
Its value is “physically unstable”.

What about the “form conversion in slurry” value ([2]; slurry in acetone) of the same compound?
Its value is “converts to N-3 readily”.

With `NC(=O)c1nn(-c2cccc(Cl)c2)c2c1CCN(c1ccc(-n3ccccc3=O)cc1)C2=O` [Form N-2, 1-(3-chlorophenyl)-7-oxo-6-[4-(2-oxo-1(2H)pyridinyl)phenyl]-4,5,6,7-tetrahydro-1H-pyrazolo[3,4-c]pyridine-3-carboxamide] as the compound, how does the “physical stability in stability study” value ([1]; 40° C./75% RH/Open for 5 Weeks and 50° C./Closed for 4 Weeks) read?
Its value is “physically stable”.

What about the moisture adsorption ([3]; at 90% RH at 25° C.) of the same compound?
The moisture adsorption was about 1.2%.

And the “hygroscopicity (in words)” value [3]?
The value was “nonhygroscopic”.

And the “relative thermodynamic stability of polymorphs” value ([2]; 25° C. to 60° C.)?
Its value is “thermodynamically less stable than polymorph N-3”.

And the “form conversion in slurry” value ([2]; slurry at 25 and 60° C.)?
Its value is “converts to N-3”.

What about the “form conversion in slurry” value ([2]; slurry in acetone at RT or about 50° C.) of the same compound?
Its value is “converts to Form N-3 readily”.

What does the source list for `NC(=O)c1nn(-c2cccc(Cl)c2)c2c1CCN(c1ccc(-n3ccccc3=O)cc1)C2=O` [Form N-3, 1-(3-chlorophenyl)-7-oxo-6-[4-(2-oxo-1(2H)pyridinyl)phenyl]-4,5,6,7-tetrahydro-1H-pyrazolo[3,4-c]pyridine-3-carboxamide]?
physical stability in accelerated stability studies [1]: physically stable; hygroscopicity (in words) [3]: nonhygroscopic; also recorded: non-hygroscopic; hysteresis in moisture sorption/desorption ([3]; up to 95% RH at 25° C.): no hysteresis was observed; moisture sorption ([3]; up to 95% RH at 25° C.): 0.4%; relative thermodynamic stability of polymorphs ([2]; 25° C. to 60° C.): thermodynamically more stable than polymorphs N-1 and N-2; relative thermodynamic stability of polymorphs ([2]; room temperature to 60° C., from slurry conversions): thermodynamically more stable polymorph

What does the source list for `NC(=O)c1nn(-c2cccc(Cl)c2)c2c1CCN(c1ccc(-n3ccccc3=O)cc1)C2=O` [Form P-1, 1-(3-chlorophenyl)-7-oxo-6-[4-(2-oxo-1(2H)pyridinyl)phenyl]-4,5,6,7-tetrahydro-1H-pyrazolo[3,4-c]pyridine-3-carboxamide]?
physical stability in accelerated stability studies (XRPD assay) ([1]; stressed for 3 weeks, 40° C./75% RH/Open): physically unstable; hygroscopicity (in words) [3]: hygroscopic; weight gain on adsorption ([3]; to 90% RH): ~16%; form conversion in solvents ([2]; in solvents (e.g., acetone)): converts to Form N-3; form conversion in slurry ([2]; slurry in different solvents (e.g., acetone, ACN, DMSO/MTBE) at about 50° C.): converts to Form N-3
